Measurements: patent publication US9409952B2, “Peptide-compound cyclization method” (Chugai Seiyaku Kabushiki Kaisha, priority 2011, dated 2016)
Read-outs that look alike come from different tables or passages of the source. Starred links: 1 amine or outer side, 2 acyl side, 3 side chain; linkers in the order of their positions; H or OH if unused. Positions of bridges follow the written chain, without caps; N, C: chain ends. Non-standard residues stand in square brackets, D forms with d. Residues, ends and D or L forms follow the SMILES beside them. *: point of attachment. NMePhe(3-Cl) = CN[C@@H](Cc1cccc(Cl)c1)C(=O)O; Met(O2) = CS(=O)(=O)CC[C@H](N)C(=O)O; NMeF = CN[C@@H](Cc1ccccc1)C(=O)O; NMeGABA = CN(CCCC(=O)[*:2])[*:1]; NMeI = CC[C@H](C)[C@H](NC)C(=O)O; NMeL = CN[C@@H](CC(C)C)C(=O)O; NMeV = CN[C@H](C(=O)O)C(C)C; NMeA = CN[C@@H](C)C(=O)O; Piperidide = C1CCN(*)CC1; dNMeA = CN[C@H](C)C(=O)O; NPrGly = CCCNCC(=O)O; Sar = CNCC(=O)O; tBu = CC(C)(C)*

Columns and labels:
[1] = Metabolic stability in human hepatic microsome; type: in vitro ADME; conditions: microsomes
[2] = PAMPA (parallel artificial membrane permeability assay); type: in vitro ADME; conditions: PAMPA
Outline: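 Artificial membrane was 10% (w/v) egg lecithin plus 0.5% (w/v) cholesterol in dodecane on a PVDF filter. A 10 mM DMSO stock was added at 0.5% (v/v) to donor buffer (50 mM MOPSO, pH 6.5, 5.0% glycocholic acid). After 18 h at 37 °C, LC/MS or LC/UV gave donor and acceptor levels for Pe.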

[3] = pH 7.4, human hepatic microsome, NADPH(+), read-out: CL NADPH(+)
[4] = membrane permeation rate (Pe), 50 mM MOPSO buffer pH 6.5 with 5.0% glycocholic acid, 37° C., 18 hours, read-out: iPAMPA Pe

SMILES	microsomal CLint at 1 uM [1, 3]	Papp at 18 hours, 50 µM [2, 4]	microsomal CLint at 1 uM ([1]; human, pH 7.4, CL NADPH(+))	Papp at 18 hours, 50 µM ([2]; pH 6.5)
CC(C)C[C@H]1C(=O)N(C)[C@@H](C(C)C)C(=O)N(C)[C@@H](C)C(=O)N[C@@H](Cc2ccccc2)C(=O)N(C)[C@@H](C)C(=O)N[C@H](C(=O)N2CCCCC2)CC(=O)N(C)[C@@H](C)C(=O)N[C@@H]([C@@H](C)O)C(=O)N(C)[C@@H](C)C(=O)N[C@@H](C)C(=O)N(C)[C@@H](Cc2ccccc2)C(=O)N1C [DP-322] ([NMeA]T[NMeA]A[NMeF][NMeL][NMeV][NMeA]F[NMeA]D-Piperidide; lactam N-11)	74 µL/min/mg	10 ×10⁻⁶ cm/s	–	–
CC(C)C[C@H]1C(=O)N[C@@H]([C@@H](C)O)C(=O)N(C)[C@@H](Cc2ccccc2)C(=O)N(C)[C@@H](CC(C)C)C(=O)NCC(=O)N(C)[C@@H](C(C)C)C(=O)N[C@@H](Cc2ccccc2)C(=O)N[C@H](C(=O)N(C)[C@@H](Cc2ccccc2)C(=O)N(C)[C@@H](Cc2ccccc2)C(=O)N[C@@H](C)C(=O)N2CCCCC2)CC(=O)N[C@H](C(C)C)C(=O)N[C@@H](C(C)C)C(=O)N1C [DP-205] ([dV]V[NMeL]T[NMeF][NMeL]G[NMeV]FD[NMeF][NMeF]A-Piperidide; lactam N-10)	29 µL/min/mg	0.12 ×10⁻⁶ cm/s	–	–
CCCN1CC(=O)N(C)[C@@H](CC(C)C)C(=O)N[C@@H]([C@@H](C)O)C(=O)N(C)[C@@H](Cc2ccccc2)C(=O)N(C)[C@@H](CC(C)C)C(=O)N(C)[C@@H]([C@@H](C)CC)C(=O)N(C)[C@@H](C)C(=O)N[C@H](C(=O)N2CCCCC2)CC(=O)N(C)CC(=O)N[C@@H](COC(C)(C)C)C1=O [DP-543] ([Sar]S(tBu)[NPrGly][NMeL]T[NMeF][NMeL][NMeI][NMeA]D-Piperidide; lactam N-10)	23 µL/min/mg	28 ×10⁻⁶ cm/s	–	–
CC[C@H](C)[C@H]1C(=O)N(C)[C@@H](Cc2ccccc2)C(=O)N[C@@H](CC(C)C)C(=O)N[C@H](C(=O)N2CCCCC2)CC(=O)N(C)CCCC(=O)N(C)[C@@H](CC(C)C)C(=O)N[C@@H]([C@@H](C)O)C(=O)N(C)[C@@H](Cc2ccccc2)C(=O)N(C)[C@@H](CC(C)C)C(=O)N(C)[C@@H](CC(C)C)C(=O)N[C@@H](C)C(=O)N1C [DP-248] ([NMeGABA][NMeL]T[NMeF][NMeL][NMeL]A[NMeI][NMeF]LD-Piperidide; lactam N-11)	36 µL/min/mg	2.6 ×10⁻⁶ cm/s	–	–
CC[C@H](C)[C@@H]1NC(=O)[C@H](C)N(C)C(=O)[C@@H](C)N(C)C(=O)C[C@@H](C(=O)N2CCCCC2)NC(=O)[C@H](CC(C)C)N(C)C(=O)[C@H](C)N(C)C(=O)[C@H](Cc2ccccc2)N(C)C(=O)[C@H]([C@@H](C)O)NC(=O)[C@H](Cc2ccccc2)N(C)C(=O)[C@H](CC(C)C)N(C)C1=O [DP-51] ([dNMeA][NMeA]I[NMeL][NMeF]T[NMeF][NMeA][NMeL]D-Piperidide; lactam N-10)	–	–	96 µL/min/mg	34 ×10⁻⁶ cm/s
CC[C@H](C)[C@H](NC(=O)[C@H](C)N(C)C(=O)[C@H](CC(C)C)N(C)C(=O)[C@H](CC(C)C)NC(=O)[C@@H]1CC(=O)N[C@@H](Cc2ccccc2)C(=O)N[C@@H]([C@@H](C)CC)C(=O)N(C)[C@@H](CC(C)C)C(=O)N(C)[C@@H](CC(C)C)C(=O)N[C@@H](Cc2ccccc2)C(=O)N[C@@H]([C@@H](C)O)C(=O)N(C)[C@@H](Cc2cccc(Cl)c2)C(=O)N1)C(=O)N1CCCCC1 [DP-931] (FI[NMeL][NMeL]FT[NMePhe(3-Cl)]DL[NMeL][NMeA]I-Piperidide; lactam N-8)	12 µL/min/mg	0.1 ×10⁻⁶ cm/s	–	–
CC[C@H](C)[C@@H]1NC(=O)[C@H](Cc2ccccc2)N(C)C(=O)[C@@H](C)NC(=O)C[C@@H](C(=O)N(C)[C@@H](CC(C)C)C(=O)NCC(=O)N(C)[C@@H](CC(C)C)C(=O)N[C@@H](C)C(=O)N2CCCCC2)NC(=O)[C@H](C(C)C)NC(=O)CN(C)C(=O)[C@H]([C@@H](C)O)NC1=O [DP-568] ([dA][NMeF]IT[Sar]VD[NMeL]G[NMeL]A-Piperidide; lactam N-7)	30 µL/min/mg	4.4 ×10⁻⁶ cm/s	–	–
CC(C)C[C@@H]1NC(=O)[C@H](CC(C)C)N(C)C(=O)[C@H](CC(C)C)N(C)C(=O)[C@H](CC(C)C)NC(=O)[C@H](Cc2ccccc2)N(C)C(=O)[C@H](CCS(C)(=O)=O)NC(=O)[C@H](CC(C)C)N(C)C(=O)[C@H](Cc2ccccc2)NC(=O)[C@H](C)NC(=O)C[C@@H](C(=O)N(C)[C@@H](Cc2ccccc2)C(=O)N[C@@H](C)C(=O)N2CCCCC2)NC1=O [DP-607] (AF[NMeL][Met(O2)][NMeF]L[NMeL][NMeL]LD[NMeF]A-Piperidide; lactam N-10)	2 µL/min/mg	1.2 ×10⁻⁶ cm/s	–	–
CC[C@H](C)[C@@H]1NC(=O)[C@H](C)N(C)C(=O)[C@H](CC(C)C)N(C)C(=O)[C@H](Cc2ccccc2)NC(=O)[C@H](CC(C)C)N(C)C(=O)[C@H](CC(C)C)N(C)C(=O)[C@H](C)N(C)C(=O)[C@H](Cc2ccccc2)N(C)C(=O)[C@@H](C)N(C)C(=O)C[C@@H](C(=O)N[C@H](C(=O)N2CCCCC2)[C@@H](C)CC)NC(=O)[C@H](CC(C)C)N(C)C(=O)[C@H]([C@@H](C)O)NC(=O)[C@H](CO)NC1=O [DP-956] ([dNMeA][NMeF][NMeA][NMeL][NMeL]F[NMeL][NMeA]IST[NMeL]DI-Piperidide; lactam N-13)	40 µL/min/mg	0.58 ×10⁻⁶ cm/s	–	–
CC[C@H](C)[C@@H]1NC(=O)[C@H](Cc2ccccc2)N(C)C(=O)[C@H](CC(C)C)N(C)C(=O)[C@H](Cc2ccccc2)NC(=O)[C@H](C)N(C)C(=O)[C@H]([C@@H](C)O)NC(=O)[C@@H](C)N(C)C(=O)C[C@@H](C(=O)N2CCCCC2)NC(=O)[C@H](CC(C)C)N(C)C(=O)[C@H](C(C)C)N(C)C1=O [DP-434] ([dNMeA]T[NMeA]F[NMeL][NMeF]I[NMeV][NMeL]D-Piperidide; lactam N-10)	166 µL/min/mg	38 ×10⁻⁶ cm/s	–	–
CC[C@H](C)[C@@H]1NC(=O)[C@H](C)N(C)C(=O)C[C@@H](C(=O)N2CCCCC2)NC(=O)[C@H](Cc2ccccc2)NC(=O)[C@H](CC(C)C)N(C)C(=O)[C@H](C(C)C)N(C)C(=O)[C@H](C)N(C)C(=O)[C@H]([C@@H](C)O)NC(=O)[C@H](Cc2ccccc2)N(C)C(=O)[C@H](C)N(C)C(=O)[C@H](CC(C)C)N(C)C1=O [DP-481] ([NMeA]I[NMeL][NMeA][NMeF]T[NMeA][NMeV][NMeL]FD-Piperidide; lactam N-11)	82 µL/min/mg	31 ×10⁻⁶ cm/s	–	–
CC(C)C[C@H]1C(=O)N[C@@H](COC(C)(C)C)C(=O)N(C)CC(=O)N[C@@H]([C@@H](C)O)C(=O)N[C@H](C(=O)N2CCCCC2)CC(=O)N[C@@H](C(C)C)C(=O)N(C)[C@@H](Cc2ccccc2)C(=O)N1C [DP-724] (V[NMeF][NMeL]S(tBu)[Sar]TD-Piperidide; lactam N-7)	160 µL/min/mg	20 ×10⁻⁶ cm/s	–	–
CC(C)C[C@@H]1NC(=O)[C@H](CC(C)C)N(C)C(=O)[C@H](Cc2ccccc2)N(C)C(=O)[C@H]([C@@H](C)O)NC(=O)[C@H](CC(C)C)N(C)C(=O)CN(C)C(=O)CCCN(C)C(=O)C[C@@H](C(=O)N2CCCCC2)NC1=O [DP-713] ([NMeGABA][Sar][NMeL]T[NMeF][NMeL]LD-Piperidide; lactam N-8)	169 µL/min/mg	27 ×10⁻⁶ cm/s	–	–
